Where a name gives a salt, the structure may show the parent alone.
For `CN1CCN(c2nc(-c3ccc(OCCO)cc3)cc3ccccc23)CC1` (as salt: hydrochloride) [Example 3, 1-(1-methylpiperazin-4-yl)-3-[4-(2-hydroxyethoxy)phenyl]isoquinoline], the melting point was 131 to 144 °C.
`CCC(F)c1ccc(-c2cc3ccccc3c(N3CCN(CC)CC3)n2)cc1` (centres unmarked) (as salt: hydrochloride) [Example 5, 1-(4-ethylpiperazin-1-yl)-3-[4-(1-fluoropropyl)phenyl]isoquinoline Hydrochloride] gave a melting point of 147 to 149 °C.
Molecule `CCN1CCN(c2nc(-c3cccc(OC)c3)cc3ccccc23)CC1` (as salt: hydrochloride) [Example 9, 1-(4-ethylpiperazin-1-yl)-3-(3-methoxyphenyl)isoquinone Dihydrochloride] has a melting point of 108 to 110 °C.
Molecule `CCN1CCN(c2nc(-c3ccc(OC)cc3OC)cc3ccccc23)CC1` (as salt: hydrochloride) [Example 12, 3-(2,4-dimethoxyphenyl)-1-(4-ethylpiperazin-1-yl)isoquinolin Dihydrochloride] has a melting point of 145 to 148 °C.
With `CCN1CCN(c2nc(-c3ccc(OC)c(OC)c3)cc3ccccc23)CC1` (as salt: hydrochloride) [Example 14, 3-(3,4-dimethoxyphenyl)-1-(4-ethylpiperazin-1-yl)isoquinoline Dihydrochloride] the melting point was 125 to 126.5 °C.
Work on `CCN1CCN(c2nc(-c3cc(OC)cc(OC)c3)cc3ccccc23)CC1` (as salt: hydrochloride) [Example 15, 3-(3,5-dimethoxyphenyl)-1-(4-ethylpiperazin-1-yl)isoquinoline Dihydrochloride] yielded a melting point of 121 to 123 °C.
Work on `CCN1CCN(c2nc(-c3ccc(CO)cc3)cc3ccccc23)CC1` (as salt: hydrochloride) [Example 17, 1-(4-ethylpiperazin-1-yl)-3-(4-hydroxymethylphenyl)isoquinoline hydrochloride] yielded a melting point of 145 to 147 °C.
`CCN1CCN(c2nc(-c3ccccc3OCCO)cc3ccccc23)CC1` (as salt: hydrochloride) [Example 18, 3-[2-(2-hydroxyethoxy)phenyl]-1-(4-ethylpiperazin-1-yl)isoquinoline hydrochloride] showed a melting point of 158 to 160 °C.
For `CCC(O)c1ccc(-c2cc3ccccc3c(N3CCN(CC)CC3)n2)cc1` (centres unmarked) (as salt: hydrochloride) [Example 19, 1-(4-ethylpiperazin-1-yl)-3-[4-(1-hydroxypropyl)phenyl]isoquinoline hydrochloride], the melting point was 143 to 144 °C.
For `CCN1CCN(c2nc(-c3ccc(CCCO)cc3)cc3ccccc23)CC1` (as salt: hydrochloride) [Example 20, 1-(4-ethylpiperazin-1-yl)-3-[4-(3-hydroxypropyl)phenyl]isoquinoline hydrochloride], the melting point was 116 to 119 °C.
`CCN1CCN(c2nc(-c3ccc(CCCCO)cc3)cc3ccccc23)CC1` (as salt: hydrochloride) [Example 23, 3-[4-(4-hydroxybutyl)phenyl]-1-(4-ethylpiperazin-1-yl)isoquinoline hydrochloride] gave a melting point of 140 to 144 °C.
`CCN1CCN(c2nc(-c3ccc(C(O)CCO)cc3)cc3ccccc23)CC1` (centres unmarked) (as salt: hydrochloride) [Example 24, 3-[4-(1,3-dihydroxypropyl)phenyl]-1-(4-ethylpiperazin-1-yl)isoquinoline hydrochloride] gave a melting point of 145 to 147 °C.
`CCN1CCN(c2nc(-c3ccc(C(O)CC(C)(C)O)cc3)cc3ccccc23)CC1` (centres unmarked) (as salt: hydrochloride) [Example 25, 3-[4-(1,3-dihydroxy-3-methylbutyl)phenyl]-1-(4-ethylpiperazin-1-yl)isoquinoline] gave a melting point of 190 to 192 °C.
`CCN1CCN(c2nc(-c3ccc(C(CC(C)O)OC)cc3)cc3ccccc23)CC1` (centres unmarked) (as salt: hydrochloride) [Example 26, 3-[4-(3-hydroxy-1-methoxybutyl)phenyl]-1-(4-ethylpiperazin-1-yl)isoquinoline] showed a melting point of 171 to 174 °C.
With `CCN1CCN(c2nc(-c3ccc(C(F)CCO)cc3)cc3ccccc23)CC1` (centres unmarked) (as salt: hydrochloride) [Example 27, 1-(1-Ethylpiperazin-4-yl)-3-[4-(3-hydroxy-1-fluoropropyl)phenyl]isoquinoline] the melting point was 141 to 146 °C.
For `CCN1CCN(c2nc(-c3ccc(CO)c(F)c3)cc3ccccc23)CC1` (as salt: hydrochloride) [Example 28, 1-(4-ethylpiperazin-1-yl)-3-[4-(4-hydroxymethyl-3-fluoro)phenyl]isoquinoline hydrochloride], the melting point was 228 °C (dec.).
In the case of `CCN1CCN(c2nc(-c3ccc(CCCO)c(F)c3)cc3ccccc23)CC1` (as salt: hydrochloride) [Example 29], the melting point is reported as 126 to 127 °C (dec.).
With `CCN1CCN(c2nc(-c3ccc(CCCO)c(Cl)c3)cc3ccccc23)CC1` (as salt: hydrochloride) [Example 30, 3-[3-chloro-4-(3-hydroxypropyl)phenyl]-1-(4-ethylpiperazin-1-yl)isoquinoline hydrochloride] the melting point was 123 to 124 °C.
`CCN1CCN(c2nc(-c3ccc(CCCO)c(OC)c3)cc3ccccc23)CC1` (as salt: hydrochloride) [Example 33, 1-(4-ethylpiperazin-1-yl)-3-[4-(3-hydroxypropyl)-3-methoxyphenyl]isoquinoline hydrochloride] showed a melting point of 123 to 124 °C.
Work on `CCN1CCN(c2nc(-c3ccc(OC)c(CCCO)c3)cc3ccccc23)CC1` (as salt: hydrochloride) [Example 34, 3-[3-(3-hydroxypropyl)-4-methoxyphenyl]-1-(4-ethylpiperazin-1-yl)isoquinoline hydrochloride] yielded a melting point of 157 to 160 °C.
`CCN1CCN(c2nc(-c3ccc(OC)c(CCCCO)c3)cc3ccccc23)CC1` (as salt: hydrochloride) [Example 35, 3-[3-(4-hydroxybutyl)-4-methoxyphenyl]-1-(4-ethylpiperazin-1-yl)isoquinoline hydrochloride] showed a melting point of 128 to 132 °C.
In the case of `CCN1CCN(c2nc(-c3ccc(OCCO)cc3)cc3ccccc23)CC1` (as salt: hydrochloride) [Example 36, 1-(4-ethylpiperazin-1-yl)-3-[4-(2-hydroxyethoxy)phenyl]isoquinoline dihydrochloride], the melting point is reported as 127 to 129 °C.
`CCN1CCN(c2nc(-c3cc(OCCO)cc(OCCO)c3)cc3ccccc23)CC1` (as salt: hydrochloride) [Example 38, 3-[3,5-di(2-hydroxyethoxy)phenyl]-1-(4-ethylpiperazin-1-yl)isoquinoline hydrochloride] gave a melting point of 232 to 234 °C.
Work on `CCN1CCN(c2nc(-c3ccc(OCCO)c(Cl)c3)cc3ccccc23)CC1` (as salt: hydrochloride) [Example 39, 3-[3-chloro-4-(2-hydroxyethoxy)phenyl]-1-(4-ethylpiperazin-1-yl)isoquinoline hydrochloride] yielded a melting point of 138 to 140 °C.
`CCN1CCN(c2nc(-c3ccc(OCCO)c(C)c3)cc3ccccc23)CC1` (as salt: hydrochloride) [Example 40, 3-[3-methyl-4-(2-hydroxyethoxy)phenyl]-1-(4-ethylpiperazin-1-yl)isoquinoline hydrochloride] gave a melting point of 133 to 136 °C.
With `CCN1CCN(c2nc(-c3ccc(OCCO)c(C(C)C)c3)cc3ccccc23)CC1` (as salt: hydrochloride) [Example 41, 3-[3-isopropyl-4-(2-hydroxyethoxy)phenyl]-1-(4-ethylpiperazin-1-yl)isoquinoline hydrochloride] the melting point was 248 to 250 °C (dec.).
In the case of `CCN1CCN(c2nc(-c3ccc(OCCOC)cc3)cc3ccccc23)CC1` (as salt: hydrochloride) [Example 42, 1-(4-ethylpiperazin-1-yl)-3-[4-(2-methoxyethoxy)phenyl]isoquinoline dihydrochloride], the melting point is reported as 184.5 to 185 °C (dec.).
In the case of `CCN1CCN(c2nc(-c3ccc(OCCOC)c(OCCOC)c3)cc3ccccc23)CC1` (as salt: hydrochloride) [Example 43, 3-[3,4-Di(2-Methoxyethoxy)Phenyl]-1-(4-Ethylpiperazin-1-Yl)Isoquinoline Hydrochloride], the melting point is reported as 143 to 144 °C.
With `CCN1CCN(c2nc(-c3ccc(COCCO)cc3)cc3ccccc23)CC1` (as salt: hydrochloride) [Example 44, 3-[4-(2-Hydroxyethoxylmethylphenyl]-1-(4-ethylpiperazin-1-Yl)Isoquinoline Hydrochloride] the melting point was 129 to 131 °C.
For `CCN1CCN(c2nc(-c3ccc(OCCF)cc3)cc3ccccc23)CC1` (as salt: hydrochloride) [Example 45, 1-(4-Ethylpiperazin-1-Yl)-3-[4-(2-Fluoroethoxy)Phenyl]Isoquinoline Dihydrochloride], the melting point was 223 to 224 °C (dec.).
Molecule `CCN1CCN(c2nc(-c3ccc4c(c3)OCO4)cc3ccccc23)CC1` (as salt: hydrochloride) [Example 46, 3-(3,4-Methylenedioxyphenyl)-1-(4-Ethylpiperazin-1-Yl)Isoquinoline Hydrochloride] has a melting point of 223 to 227 °C.
For `CCN1CCN(c2nc(-c3ccc(OCCN(C)C)cc3)cc3ccccc23)CC1` (as salt: hydrochloride) [Example 49, 1-(1-Ethylpiperazin-4-Yl)-3-[4-(2-Dimethylaminoethoxy)Phenyl]Isoquinoline], the melting point was 153 to 158 °C.
Work on `CCN1CCN(c2nc(-c3ccc(OCC#N)cc3)cc3ccccc23)CC1` (as salt: hydrochloride) [Example 51, 3-(4-Cyanomethoxyphenyl)-1-(4-Ethylpiperazin-1-Yl)Isoquinoline Hydrochloride] yielded a melting point of 123 to 125 °C.
With `CCN1CCN(c2nc(-c3ccc(OCCCC#N)cc3)cc3ccccc23)CC1` (as salt: hydrochloride) [Example 53, 3-[4-(3-Cyanopropoxy)Phenyl]-1-(4-Ethylpiperazin-1-Yl)Isoquinoline Hydrochloride] the melting point was 144 to 146 °C.
`CCN1CCN(c2nc(-c3ccc(OCCn4ccnc4)cc3)cc3ccccc23)CC1` (as salt: hydrochloride) [Example 56, 3-{4-[2-(1-Imidazonyl)Ethoxy]phenyl}-1-(4-Ethylpiperazin-1-Yl)Isoquinoline Hydrochloride] gave a melting point of 160 to 162 °C.

From US6875761B2 (Eisai Co., Ltd., priority 1997, dated 2005)
